Data reported in ChEMBL document CHEMBL6087447, “Impact of Linker Composition on VHL PROTAC Cell Permeability” (J Med Chem, 2025).

Experiment: Permeability of the compound in PBS buffer at pH 7.4 incubated for 16 hrs by LC-MS/MS based PAMPA assay
Format: ADME
Details: read-out: permeability

| Papp at 16 h [×10⁻⁶ cm/s] | Structure (SMILES) |
| --- | --- |
| 6.3 | Cc1ncsc1-c1ccc(CNC(=O)[C@@H]2C[C@@H](O)CN2C(=O)[C@@H](NC(=O)COCCOCCNC(=O)COc2cnc3c(C4CCN(C(=O)c5ccc(OC(F)(F)F)cc5)CC4)ncnc3c2)C(C)(C)C)cc1 |
| 5.42 | Cc1ncsc1-c1ccc(CNC(=O)[C@@H]2C[C@@H](O)CN2C(=O)[C@@H](NC(=O)CCOCCOCCOc2cnc3c(C4CCN(C(=O)c5ccc(OC(F)(F)F)cc5)CC4)ncnc3c2)C(C)(C)C)cc1 |
| 6.67 | Cc1ncsc1-c1ccc(CNC(=O)[C@@H]2C[C@@H](O)CN2C(=O)[C@@H](NC(=O)CN(C)CCCCCCOc2cnc3c(C4CCN(C(=O)c5ccc(OC(F)(F)F)cc5)CC4)ncnc3c2)C(C)(C)C)cc1 |
| 7.94 | Cc1ncsc1-c1ccc(CNC(=O)[C@@H]2C[C@@H](O)CN2C(=O)[C@@H](NC(=O)COCc2cn(CCOc3cnc4c(C5CCN(C(=O)c6ccc(OC(F)(F)F)cc6)CC5)ncnc4c3)nn2)C(C)(C)C)cc1 |
| 7.28 | Cc1ncsc1-c1ccc(CNC(=O)[C@@H]2C[C@@H](O)CN2C(=O)[C@@H](NC(=O)Cc2ccc(OCCOc3cnc4c(C5CCN(C(=O)c6ccc(OC(F)(F)F)cc6)CC5)ncnc4c3)cn2)C(C)(C)C)cc1 |
| 6.21 | Cc1ncsc1-c1ccc(CNC(=O)[C@@H]2C[C@@H](O)CN2C(=O)[C@@H](NC(=O)CCOCCNC(=O)COc2cnc3c(C4CCN(C(=O)c5ccc(OC(F)(F)F)cc5)CC4)ncnc3c2)C(C)(C)C)cc1 |
| 7.56 | Cc1ncsc1-c1ccc(CNC(=O)[C@@H]2C[C@@H](O)CN2C(=O)[C@@H](NC(=O)Cc2ccc(OCCOc3cnc4c(C5CCN(C(=O)c6ccc(OC(F)(F)F)cc6)CC5)ncnc4c3)cc2)C(C)(C)C)cc1 |
| 6.9 | Cc1ncsc1-c1ccc(CNC(=O)[C@@H]2C[C@@H](O)CN2C(=O)[C@@H](NC(=O)CN2CCC(CCCOc3cnc4c(C5CCN(C(=O)c6ccc(OC(F)(F)F)cc6)CC5)ncnc4c3)CC2)C(C)(C)C)cc1 |
| 8.29 | Cc1ncsc1-c1ccc(CNC(=O)[C@@H]2C[C@@H](O)CN2C(=O)[C@@H](NC(=O)CCCCCCCCOc2cnc3c(C4CCN(C(=O)c5ccc(OC(F)(F)F)cc5)CC4)ncnc3c2)C(C)(C)C)cc1 |
